The test system of one experiment is Pax4 promoter. Put plainly: Cellular HTS-Pax4 screening assay (Capan-1 pKS-Pax-4-LUC luciferase reporter). It counts as cell-based, human. To be noted: Capan-1 pKS-Pax-4-LUC clone18; compound 10 μM with Trichostatin A 0.75 μM; 30 hour. An excerpt: To perform high throughput screening for compounds that are either directly or indirectly capable of switching on Pax4 expression, a Pax4 reporter gene assay was established. Therefore, cDNA constructs containing a luciferase reporter gene under the control of the Pax4 promoter with the complete Pax4 gene locus were introduced into the human pancreatic duct cell line CAPAN-1.
Generation of stable Cell Lines and Drug Selections Capan-1 human pancreatic duct cell line ([HBT-79], purchased from American Type Culture Collection (ATCC), referred to as Capan-1 herein) were grown in high glucose DMEM [Gibco Cat. No. 61965-026] containing 10% FBS [Gibco Cat. No. 10270-106] at 37° C. under an atmosphere of 5% CO2. The Pax-4-reporter gene construct (referred to as pKS-Pax-4-LUC)— a cDNA construct containing a luciferase reporter (LUC) gene under the control of the Pax4 promoter with the complete Pax4 gene locus were cloned into the plasmid pBlueskript ks (FIG. 5). […]
Capan-1, stably transfected with pKS-Pax-4-LUC (clone18), cultivated without G418 for 4 day's, were plated at a density of 1×10^4 cells per 96 well plate [Greiner, LIA plate white, Cat. No. 655083] in 100 μl DMEM containing 10% (v/v) FBS without G418 and grown for 24 hour. […] The luminescence was measured within 15 minutes after reagent addition for maximum sensitivity.
Background: A reporter such as luciferase makes a cellular process visible.

A further experiment deals with minimal CMV promotor. Put plainly: Counter screen assay (Capan-1-pCMVmin-LUC-54 cells). It counts as cell-based, human. To be noted: compound 10 μM with Trichostatin A 0.75 μM, 30 hour. The protocol:
Generation of stable Cell Lines and Drug Selections Capan-1 human pancreatic duct cell line ([HBT-79], purchased from American Type Culture Collection (ATCC), referred to as Capan-1 herein) were grown in high glucose DMEM [Gibco Cat. No. 61965-026] containing 10% FBS [Gibco Cat. No. 10270-106] at 37° C. under an atmosphere of 5% CO2. The Pax-4-reporter gene construct (referred to as pKS-Pax-4-LUC)— a cDNA construct containing a luciferase reporter (LUC) gene under the control of the Pax4 promoter with the complete Pax4 gene locus were cloned into the plasmid pBlueskript ks (FIG. 5). The Minimal CMV reporter gene construct (referred to as pCMVmin-LUC): a fire fly luciferase reporter gene (LUC) under the control of a minimal CMV promotor (56 bp) was cloned into pcDNA3.1 plasmid (without promotor) (FIG. 6).
Stable transfected Capan-1-pCMVmin-LUC-54 cells, cultivated without G418 for 4 day's, were plated at a density of 4×10^4 cells per 96 well plate [Greiner, LIA plate white, Cat. No. 655083] in 100 μl DMEM containing 10% (v/v) FBS and grown for 24 hour. Cells were starved by serum starvation for 16 hour in 8511 medium without FBS [DMEM(Cat. No. 25030-024) containing 5% L-glutamine]. […] The luminescence was measured within 15 minutes after reagent addition for maximum sensitivity.
A general note: Counterscreens check selectivity or assay interference.

For experiment [1], the system named is Pax4. Put plainly: Pax4 transcription in INS-1E insulinoma cells, quantitative RT-PCR. It counts as cell-based, rat. The following applies: INS-1E cells. The text has this:
The response of the Pax4 gene to test compounds was investigated in the rat insulinoma cell line INS-1E. INS-1E cells are known to express Pax4 and to upregulate Pax4 levels in response to the treatment with activin-A and betacellulin. In the search for novel beta cell mitogens and/or beta cell protective agents the inventors treated INS-1E cells with different test compounds.
(§1) Total RNA from 8×10^4 cells growing on 4 cm^2 surface area of a tissue culture dish was extracted using Qiagen RNAeasy kit according to the instructions of the manufacturer (Qiagen) and 2 μg was converted into cDNA. Primers for pax4, 18S RNA, and rat RNA polymerase II largest subunit (RPB1) were designed using the Primer Express 1.5 Software from Applied Biosystems and sequences can be obtained upon request. Quantitative real-time PCR was performed using Applied Biosystems SDS 7000 detection system. Amplifications from 2 independent experiments were performed in duplicate for each transcript and mean values were normalized to the mean value of the reference RNA 18S RNA.
Cells were seeded at a density of 2×10^4 cells per cm^2 6 to 8 days before the treatment with chemicals. During the growth period the medium was changed once. The cells were incubated for different periods of time with chemicals under serum-free conditions. The cells were harvested in Qiagen RNAeasy cell lysate buffer and immediately transferred to dry ice. The samples were stored at −20° C. until RNA isolation was carried out.
Cells were seeded at a density of 2×10^4 cells per cm^2 6 to 8 days before the treatment with chemicals. During the growth period the medium was changed once. The cells were incubated for different periods of time with chemicals under serum-free conditions. The cells were harvested in Qiagen RNA easy cell lysate buffer and immediately transferred to dry ice. The samples were stored at −20 degree until RNA isolation was carried out.

Experiment [2] concerns Pax4. Put plainly: Pax4 expression in human islets. It counts as cell-based. The following applies: 5 μM, 48 h. The protocol:
FIG. 2 illustrates relative Pax4 expression in untreated human islets and human islets, treated with 5 μM Kenpaullone (KP) for 48 h.
Further, human islets were treated with 5 μM Kenpaullone for 48 h. The treated islets show a 10-15 fold expression of Pax4 compared to untreated pancreatic islets.

For experiment [3], the system named is Pax4. Put plainly: Pax4 expression in small intestine and colon.
Experiment [4] deals with human Pax4 promoter. Put plainly: Pax4 reporter gene assay in INS-1-cl.-3.5 cells. It counts as cell-based, rat. The following applies: INS-1-cl.-3.5 or INS-1-cl.-9 cells; FIG. 18, FIG. 19. The protocol: (§2) INS-1E cell lines were grown as described below. The Pax-4-reporter gene construct (referred to as pKS-Pax-4-LUC), a cDNA construct containing a firefly luciferase reporter (LUC) gene under the transcriptional control of human Pax4 promoter sequences and the nearly complete human Pax4 gene locus (cf. FIG. 5A) was cloned into the plasmid pBluescript ks.
(§3) Adherent INS-1E cells were transfected using Lipofectamine 2000 (Invitrogen) according to the protocol provided by the supplier. The transfected cells were treated with media containing 400 μg/ml G418 Sulfate (e.g. Geneticin from Gibco; Cat. No. 11811-098), a selection agent for eukaryotic cells, 24 to 48 hours after the transfection. To establish independent stable cell lines, cell colonies which occurred 2 to 6 weeks after the transfection were individually transferred to new culture dishes and then propagated like untransfected INS-1E cells, but in the presence of G418 Sulfate.
(§4) For the identification and/or characterization of beta-cell mitogens a Pax4 reporter gene assay has been established. […]
(§5) Luciferase activity that can be quantified using appropriate imaging systems reflects the activation status of the human Pax4 promoter. […]

Experiment [5] relates to human Pax4 promoter. Put plainly: Pax4 reporter gene assay in INS-1-cl-1.5 cells. It counts as cell-based, rat. The protocol:
as §2, §3, §4, §5

In experiment [6] the test system is RNA polymerase II largest subunit (RPB1). Put plainly: Expression of unrelated gene RPB1 in INS-1E cells, quantitative RT-PCR. It counts as cell-based, rat.
Text: The response of the Pax4 gene to mitogens was investigated in the rat insulinoma cell line INS-1E. INS-1E cells are known to express Pax4 and to upregulate Pax4 levels in response to the treatment with activin-A and betacellulin (Ueda (2000), supra, Li et al. (2004) supra, Brun et al. (2004), supra). In the search for novel beta-cell mitogens the inventors treated INS-1E cells with proteins related to activin A or betacellulin. […] The Pax4 RNA expression level was normalized to this of 18S RNA. The level of the unrelated gene RNA polymerase II largest subunit (RPB1) was unaffected by activin B treatment.
as §1
INS-1E cells were cultured as described (Merglen, (2004) Endocrinology; 145: 667-678). […]

For `O=C1Cc2c([nH]c3ccc(Br)cc23)-c2ccccc2N1` [Kenpaullone, 9-Bromo-7,12-dihydro-indolo[3,2-d][1]benzazepin-6(5H)-one], the “induction of luciferase activity” value in the experiment with Pax4 promoter came out at 6 fold. Also, the “induction in the counterscreen” value in the experiment on minimal CMV promotor stood at 1.2 fold. In addition, the “induction of relative Pax4 expression compared to the control” value with Pax4 [1] (20 μM) turned out to be 8 fold. Besides, in the experiment with Pax4 [1] (20 μM, FIG. 1), the “Pax4 gene transcription over time (in words)” value was “transiently induces Pax4 gene transcription”. In addition, the “expression of Pax4 compared to untreated pancreatic islets” value in the experiment with Pax4 [2] is on record as 10-15 fold. The “effect on Pax4 expression in small intestine and colon” value in the experiment with Pax4 [3] is “No effect”.

For the molecule TGF-beta 1: Activin related protein, the “Pax4 reporter response of clone (in words)” value in the experiment on human Pax4 promoter [4] is “does not effect Pax4 transcription”.

B1: Activin: Activin; figures 18 and 19 name activin-A (protein, UniProt P08476 311-426, looked up)
Inhibin beta A chain: GLECDGKVNICCKKQFFVSFKDIGWNDWIIAPSGYHANYCEGECPSHIAGTSGSSLSFHSTVINHYRMRGHSPFANLKSCCVPTKLRPMSMLYYDDGQNIIKKDIQNMIVEECGCS
modifications: Inhibin beta A chain
With B1, the “Pax4 reporter response of clone (in words)” value is “does not react to Activin stimulation” in the experiment on human Pax4 promoter [5] and “react to Activin treatment” in the experiment on human Pax4 promoter [4].

B2: activin B: protein related to activin A (protein, UniProt P09529 293-407, looked up)
Inhibin beta B chain: GLECDGRTNLCCRQQFFIDFRLIGWNDWIIAPTGYYGNYCEGSCPAYLAGVPGSASSFHTAVVNQYRMRGLNPGTVNSCCIPTKLSTMSMLYFDDEYNIVKRDVPNMIVEECGCA
modifications: Inhibin beta B chain
In the case of B2, the “increase in Pax4 levels (maximal Pax4 induction)” value in the experiment on Pax4 [1] (1 nM) is on record as approximately 7.5 fold. Further, the “stimulation of Pax4 transcription relative to activin A (in words)” value in the experiment with Pax4 [1] (FIG. 16) is “almost equally potent in stimulating Pax4 transcription as activin A”. The “level of RNA polymerase II largest subunit (RPB1)” value in experiment [6] was “unaffected”.

The values above are taken from US20080207594A1, “Use of Gsk-3 Inhibitors for Preventing and Treating Pancreatic Autoimmune Disorders” (Davelogen Aktiengesellschaft, priority 2005, published 2008).
